Assay results from ChEMBL document CHEMBL4879554, “Data for DCP probe GNE-2256” (2021).
pIC50: −log10 of the molar value.

Legend:
[1] = molecular target: Activin receptor type-2B (Homo sapiens) (UniProt Q13705); experiment: ACVR2B Kinase panel; conditions: Compound concentration 1.0 uM
[2] = molecular target: RAC-beta serine/threonine-protein kinase (Homo sapiens) (UniProt P31751); experiment: AKT2 Kinase panel; conditions: Compound concentration 1.0 uM
[3] = molecular target: Bone morphogenetic protein receptor type-1A (Homo sapiens) (UniProt P36894); experiment: BMPR1A Kinase panel; conditions: Compound concentration 1.0 uM
[4] = molecular target: Cyclin-dependent kinase 5/CDK5 activator 1 (Homo sapiens) (UniProt Q00535+Q15078); experiment: CDK5/p25 Kinase panel; type: protein-complex assay; conditions: Compound concentration 1.0 uM
[5] = molecular target: CDK8/Cyclin C (Homo sapiens) (UniProt P49336+P24863); experiment: CDK8/cyclinC Kinase panel; type: protein-complex assay; conditions: Compound concentration 1.0 uM
[6] = molecular target: Macrophage colony-stimulating factor 1 receptor (Homo sapiens) (UniProt P07333); experiment: CSF1R Kinase panel; conditions: Compound concentration 1.0 uM
[7] = molecular target: Calcium/calmodulin-dependent protein kinase type 1D (Homo sapiens) (UniProt Q8IU85); experiment: CaMKI_delta Kinase panel; conditions: Compound concentration 1.0 uM
[8] = molecular target: Calcium/calmodulin-dependent protein kinase type II subunit alpha (Homo sapiens) (UniProt Q9UQM7); experiment: CamKII_alpha Kinase panel; conditions: Compound concentration 1.0 uM
[9] = molecular target: Mitogen-activated protein kinase kinase kinase 8 (Homo sapiens) (UniProt P41279); experiment: Cot Kinase panel; conditions: Compound concentration 1.0 uM
[10] = molecular target: Death-associated protein kinase 1 (Homo sapiens) (UniProt P53355); experiment: DAPK1 Kinase panel; conditions: Compound concentration 1.0 uM
[11] = molecular target: Myotonin-protein kinase (Homo sapiens) (UniProt Q09013); experiment: DMPK Kinase panel; conditions: Compound concentration 1.0 uM
[12] = molecular target: Serine/threonine-protein kinase 17A (Homo sapiens) (UniProt Q9UEE5); experiment: DRAK1 Kinase panel; conditions: Compound concentration 1.0 uM
[13] = test system: Epidermal growth factor receptor (Homo sapiens), P00533 [L858R,T790M]; experiment: EGFR(T790M,L8 58R) Kinase panel; conditions: Compound concentration 1.0 uM
[14] = molecular target: Ephrin type-A receptor 1 (Homo sapiens) (UniProt P21709); experiment: EphA1 Kinase panel; conditions: Compound concentration 1.0 uM
[15] = molecular target: Vascular endothelial growth factor receptor 1 (Homo sapiens) (UniProt P17948); experiment: Flt1 Kinase panel; conditions: Compound concentration 1.0 uM
[16] = molecular target: Vascular endothelial growth factor receptor 3 (Homo sapiens) (UniProt P35916); experiment: Flt4 Kinase panel; conditions: Compound concentration 1.0 uM
[17] = molecular target: Beta-adrenergic receptor kinase 1 (Homo sapiens) (UniProt P25098); experiment: GRK2 Kinase panel; conditions: Compound concentration 1.0 uM
[18] = molecular target: G protein-coupled receptor kinase 3 (Homo sapiens) (UniProt P35626); experiment: GRK3 Kinase panel; conditions: Compound concentration 1.0 uM
[19] = molecular target: G protein-coupled receptor kinase 6 (Homo sapiens) (UniProt P43250); experiment: GRK6 Kinase panel; conditions: Compound concentration 1.0 uM
[20] = molecular target: Interleukin-1 receptor-associated kinase 1 (Homo sapiens) (UniProt P51617); experiment: IRAK1 Kinase panel; conditions: Compound concentration 1.0 uM
[21] = molecular target: T1, Tyrosine-protein kinase JAK1 (Homo sapiens, UniProt P23458); experiment: JAK1 Kinase panel
[22] = molecular target: T2, Tyrosine-protein kinase JAK2 (Homo sapiens, UniProt O60674); experiment: JAK2 Kinase panel
[23] = molecular target: Mitogen-activated protein kinase 10 (Homo sapiens) (UniProt P53779); experiment: JNK3 Kinase panel; conditions: Compound concentration 1.0 uM
[24] = molecular target: Tyrosine-protein kinase Lck (Homo sapiens) (UniProt P06239); experiment: Lck Kinase panel; conditions: Compound concentration 1.0 uM
[25] = molecular target: Mitogen-activated protein kinase kinase kinase 2 (Homo sapiens) (UniProt Q9Y2U5); experiment: MEKK2 Kinase panel; conditions: Compound concentration 1.0 uM
Misshapen-like kinase 1 = Misshapen-like kinase 1 (Homo sapiens, UniProt Q8N4C8); experiment: Mink1 Kinase panel
[26] = molecular target: Serine/threonine-protein kinase PAK 3 (Homo sapiens) (UniProt O75914); experiment: PAK3 Kinase panel; conditions: Compound concentration 1.0 uM
[27] = molecular target: Serine/threonine-protein kinase PAK 4 (Homo sapiens) (UniProt O96013); experiment: PAK4 Kinase panel; conditions: Compound concentration 1.0 uM
[28] = molecular target: Platelet-derived growth factor receptor alpha (Homo sapiens) (UniProt P16234); experiment: PDGFR_alpha Kinase panel; conditions: Compound concentration 1.0 uM
[29] = molecular target: Protein kinase C delta type (Homo sapiens) (UniProt Q05655); experiment: PKC_delta Kinase panel; conditions: Compound concentration 1.0 uM
[30] = molecular target: MAP kinase-activated protein kinase 5 (Homo sapiens) (UniProt Q8IW41); experiment: PRAK Kinase panel; conditions: Compound concentration 1.0 uM
[31] = molecular target: Serine/threonine-protein kinase N1 (Homo sapiens) (UniProt Q16512); experiment: PRK1 Kinase panel; conditions: Compound concentration 1.0 uM
[32] = molecular target: Phosphorylase b kinase gamma catalytic chain, skeletal muscle/heart isoform (Homo sapiens) (UniProt Q16816); experiment: PhK_gamma1 Kinase panel; conditions: Compound concentration 1.0 uM
[33] = molecular target: Macrophage-stimulating protein receptor (Homo sapiens) (UniProt Q04912); experiment: Ron Kinase panel; conditions: Compound concentration 1.0 uM
[34] = molecular target: Serine/threonine-protein kinase Sgk1 (Homo sapiens) (UniProt O00141); experiment: SGK1 Kinase panel; conditions: Compound concentration 1.0 uM
[35] = molecular target: Serine/threonine-protein kinase SIK2 (Homo sapiens) (UniProt Q9H0K1); experiment: SIK2 Kinase panel; conditions: Compound concentration 1.0 uM
[36] = molecular target: STE20-like serine/threonine-protein kinase (Homo sapiens) (UniProt Q9H2G2); experiment: SLK Kinase panel; conditions: Compound concentration 1.0 uM
[37] = molecular target: Serine/threonine-protein kinase 16 (Homo sapiens) (UniProt O75716); experiment: STK16 Kinase panel; conditions: Compound concentration 1.0 uM
[38] = molecular target: Tyrosine-protein kinase Srms (Homo sapiens) (UniProt Q9H3Y6); experiment: Srm Kinase panel; conditions: Compound concentration 1.0 uM
Homo sapiens = species: Homo sapiens; experiment: (§1) TAO1 Kinase panel; conditions: Compound concentration 1.0 uM
[39] = molecular target: Serine/threonine-protein kinase TAO1 (Homo sapiens) (UniProt Q7L7X3); experiment: as §1; conditions: Compound concentration 1.0 uM
[40] = molecular target: TGF-beta receptor type-1 (Homo sapiens) (UniProt P36897); experiment: TGFBR1 Kinase panel; conditions: Compound concentration 1.0 uM
[41] = molecular target: Serine/threonine-protein kinase 25 (Homo sapiens) (UniProt O00506); experiment: YSK1 Kinase panel; conditions: Compound concentration 1.0 uM
[42] = molecular target: Tyrosine-protein kinase Yes (Homo sapiens) (UniProt P07947); experiment: Yes Kinase panel; conditions: Compound concentration 1.0 uM
[43] = molecular target: Eukaryotic elongation factor 2 kinase (Homo sapiens) (UniProt O00418); experiment: eEF_2K Kinase panel; conditions: Compound concentration 1.0 uM
[44] = molecular target: Mitogen-activated protein kinase 11 (Homo sapiens) (UniProt Q15759); experiment: p38_beta Kinase panel; conditions: Compound concentration 1.0 uM
[45] = molecular target: T1, Tyrosine-protein kinase JAK1; experiment: NanoBRET assay (JAK1, SGC Frankfurt)
[46] = molecular target: T2, Tyrosine-protein kinase JAK2; experiment: NanoBRET assay (JAK2, SGC Frankfurt)
[47] = molecular target: 5-hydroxytryptamine receptor 2C (Homo sapiens) (UniProt P28335); conditions: Compound concentration 10.0 uM
[48] = molecular target: 5-hydroxytryptamine receptor 3A (Homo sapiens) (UniProt P46098); conditions: Compound concentration 10.0 uM
[49] = molecular target: 5-hydroxytryptamine receptor 6 (Homo sapiens) (UniProt P50406); conditions: Compound concentration 10.0 uM
[50] = molecular target: D(2) dopamine receptor (Homo sapiens) (UniProt P14416); conditions: Compound concentration 10.0 uM
[51] = molecular target: Delta-type opioid receptor (Homo sapiens) (UniProt P41143); conditions: Compound concentration 10.0 uM
[52] = molecular target: Histamine H3 receptor (Homo sapiens) (UniProt Q9Y5N1); conditions: Compound concentration 10.0 uM
[53] = molecular target: Histamine H4 receptor (Homo sapiens) (UniProt Q9H3N8); conditions: Compound concentration 10.0 uM

T2 sequence (O60674 whole entry): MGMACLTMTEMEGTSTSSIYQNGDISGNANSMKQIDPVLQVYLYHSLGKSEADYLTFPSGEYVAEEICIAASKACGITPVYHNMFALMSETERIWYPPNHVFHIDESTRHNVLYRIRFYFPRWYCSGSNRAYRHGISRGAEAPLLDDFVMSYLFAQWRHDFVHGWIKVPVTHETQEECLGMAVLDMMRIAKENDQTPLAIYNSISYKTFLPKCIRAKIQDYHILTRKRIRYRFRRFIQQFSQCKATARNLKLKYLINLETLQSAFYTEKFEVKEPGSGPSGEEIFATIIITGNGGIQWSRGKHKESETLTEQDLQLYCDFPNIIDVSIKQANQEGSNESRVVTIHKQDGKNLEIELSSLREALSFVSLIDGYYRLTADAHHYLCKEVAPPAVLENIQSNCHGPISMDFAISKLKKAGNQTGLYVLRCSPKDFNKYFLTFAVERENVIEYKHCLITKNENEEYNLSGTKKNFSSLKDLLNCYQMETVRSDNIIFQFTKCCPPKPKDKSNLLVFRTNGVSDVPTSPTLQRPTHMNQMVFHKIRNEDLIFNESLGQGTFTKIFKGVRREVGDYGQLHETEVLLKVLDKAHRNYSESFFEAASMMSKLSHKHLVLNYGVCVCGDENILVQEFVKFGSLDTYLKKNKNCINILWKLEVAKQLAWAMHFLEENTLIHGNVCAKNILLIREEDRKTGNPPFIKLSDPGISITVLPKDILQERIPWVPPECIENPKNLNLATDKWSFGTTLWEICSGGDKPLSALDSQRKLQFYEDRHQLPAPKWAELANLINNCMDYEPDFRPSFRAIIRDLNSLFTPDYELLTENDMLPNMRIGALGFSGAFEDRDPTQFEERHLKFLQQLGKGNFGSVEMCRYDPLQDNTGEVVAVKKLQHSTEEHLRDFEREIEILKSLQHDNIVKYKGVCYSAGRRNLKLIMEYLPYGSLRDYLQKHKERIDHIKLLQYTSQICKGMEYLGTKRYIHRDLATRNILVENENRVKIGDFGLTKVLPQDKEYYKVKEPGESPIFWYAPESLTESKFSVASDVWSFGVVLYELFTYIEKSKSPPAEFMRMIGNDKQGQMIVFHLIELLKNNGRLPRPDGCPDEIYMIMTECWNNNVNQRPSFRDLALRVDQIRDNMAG
T1 sequence (P23458 whole entry): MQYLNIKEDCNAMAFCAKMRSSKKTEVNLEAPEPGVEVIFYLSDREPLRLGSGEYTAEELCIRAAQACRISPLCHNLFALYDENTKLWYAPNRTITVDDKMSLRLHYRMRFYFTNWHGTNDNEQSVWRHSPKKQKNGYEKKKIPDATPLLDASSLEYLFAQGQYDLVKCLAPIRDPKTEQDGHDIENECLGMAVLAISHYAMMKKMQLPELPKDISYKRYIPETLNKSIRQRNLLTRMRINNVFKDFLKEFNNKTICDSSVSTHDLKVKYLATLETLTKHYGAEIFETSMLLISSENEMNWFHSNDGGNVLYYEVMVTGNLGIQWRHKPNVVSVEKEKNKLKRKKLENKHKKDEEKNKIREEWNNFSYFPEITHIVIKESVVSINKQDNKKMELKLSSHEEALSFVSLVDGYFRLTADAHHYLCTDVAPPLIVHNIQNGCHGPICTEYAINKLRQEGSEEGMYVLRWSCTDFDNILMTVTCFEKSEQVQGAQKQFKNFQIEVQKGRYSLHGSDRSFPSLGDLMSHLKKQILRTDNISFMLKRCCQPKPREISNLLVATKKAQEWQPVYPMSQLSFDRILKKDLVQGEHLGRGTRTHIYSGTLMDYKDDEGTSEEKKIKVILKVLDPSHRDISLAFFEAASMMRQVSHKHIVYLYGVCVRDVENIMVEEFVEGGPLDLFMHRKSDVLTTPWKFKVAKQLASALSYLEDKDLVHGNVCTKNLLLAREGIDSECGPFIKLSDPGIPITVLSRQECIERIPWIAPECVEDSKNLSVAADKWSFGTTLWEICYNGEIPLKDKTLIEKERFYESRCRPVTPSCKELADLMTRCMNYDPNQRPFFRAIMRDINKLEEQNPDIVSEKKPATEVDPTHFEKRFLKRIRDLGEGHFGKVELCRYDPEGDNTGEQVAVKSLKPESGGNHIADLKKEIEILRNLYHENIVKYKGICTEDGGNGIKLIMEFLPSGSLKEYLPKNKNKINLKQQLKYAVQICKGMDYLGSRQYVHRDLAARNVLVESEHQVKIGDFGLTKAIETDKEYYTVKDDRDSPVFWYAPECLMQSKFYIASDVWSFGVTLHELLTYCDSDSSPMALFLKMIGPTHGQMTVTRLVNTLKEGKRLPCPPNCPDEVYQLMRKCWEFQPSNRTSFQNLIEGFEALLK
Chain of Mitogen-activated protein kinase kinase kinase 8 (Homo sapiens) (P41279 whole entry): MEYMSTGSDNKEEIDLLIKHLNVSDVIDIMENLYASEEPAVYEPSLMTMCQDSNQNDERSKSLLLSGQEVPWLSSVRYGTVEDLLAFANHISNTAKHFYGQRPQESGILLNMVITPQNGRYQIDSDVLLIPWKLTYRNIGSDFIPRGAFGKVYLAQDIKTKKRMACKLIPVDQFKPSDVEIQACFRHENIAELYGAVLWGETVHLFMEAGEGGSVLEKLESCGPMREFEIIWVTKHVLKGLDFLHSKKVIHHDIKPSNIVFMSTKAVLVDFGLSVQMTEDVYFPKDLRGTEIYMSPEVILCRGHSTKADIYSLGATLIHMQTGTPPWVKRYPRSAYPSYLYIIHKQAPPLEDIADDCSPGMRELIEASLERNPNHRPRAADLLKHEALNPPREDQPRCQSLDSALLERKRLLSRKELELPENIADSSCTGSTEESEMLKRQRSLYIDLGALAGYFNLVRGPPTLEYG
Chain of Calcium/calmodulin-dependent protein kinase type II subunit alpha (Homo sapiens) (Q9UQM7 whole entry): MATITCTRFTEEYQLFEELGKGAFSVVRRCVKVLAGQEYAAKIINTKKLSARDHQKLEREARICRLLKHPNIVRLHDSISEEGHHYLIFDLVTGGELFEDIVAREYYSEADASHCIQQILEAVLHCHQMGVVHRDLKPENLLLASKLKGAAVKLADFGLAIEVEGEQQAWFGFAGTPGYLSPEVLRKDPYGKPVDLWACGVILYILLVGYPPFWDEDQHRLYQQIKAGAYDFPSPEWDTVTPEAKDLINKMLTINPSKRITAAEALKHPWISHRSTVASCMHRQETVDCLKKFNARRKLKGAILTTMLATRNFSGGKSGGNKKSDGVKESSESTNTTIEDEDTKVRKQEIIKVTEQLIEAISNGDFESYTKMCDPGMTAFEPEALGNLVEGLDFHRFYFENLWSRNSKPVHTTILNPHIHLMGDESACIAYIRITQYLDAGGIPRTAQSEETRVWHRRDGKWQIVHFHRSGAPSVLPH
Chain of Protein kinase C delta type (Homo sapiens) (Q05655 whole entry, looked up): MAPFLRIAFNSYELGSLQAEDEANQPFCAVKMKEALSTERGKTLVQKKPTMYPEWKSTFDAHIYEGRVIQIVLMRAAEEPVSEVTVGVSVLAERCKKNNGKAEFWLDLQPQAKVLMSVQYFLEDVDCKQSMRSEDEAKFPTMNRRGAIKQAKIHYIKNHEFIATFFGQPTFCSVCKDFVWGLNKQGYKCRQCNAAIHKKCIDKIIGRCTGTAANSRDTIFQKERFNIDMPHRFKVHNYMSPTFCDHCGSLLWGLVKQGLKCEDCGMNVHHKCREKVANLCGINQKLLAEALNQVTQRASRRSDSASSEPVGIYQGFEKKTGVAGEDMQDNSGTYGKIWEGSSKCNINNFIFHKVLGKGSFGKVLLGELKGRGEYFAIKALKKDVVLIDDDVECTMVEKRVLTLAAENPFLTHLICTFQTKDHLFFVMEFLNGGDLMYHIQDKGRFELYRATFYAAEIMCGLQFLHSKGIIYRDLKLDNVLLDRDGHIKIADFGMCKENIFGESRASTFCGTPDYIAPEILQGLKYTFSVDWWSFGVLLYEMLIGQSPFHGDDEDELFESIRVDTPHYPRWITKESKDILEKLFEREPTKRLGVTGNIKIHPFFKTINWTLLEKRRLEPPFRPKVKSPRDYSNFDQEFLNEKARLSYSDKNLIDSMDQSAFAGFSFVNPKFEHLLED
Chain of Serine/threonine-protein kinase SIK2 (Homo sapiens) (Q9H0K1 whole entry, looked up): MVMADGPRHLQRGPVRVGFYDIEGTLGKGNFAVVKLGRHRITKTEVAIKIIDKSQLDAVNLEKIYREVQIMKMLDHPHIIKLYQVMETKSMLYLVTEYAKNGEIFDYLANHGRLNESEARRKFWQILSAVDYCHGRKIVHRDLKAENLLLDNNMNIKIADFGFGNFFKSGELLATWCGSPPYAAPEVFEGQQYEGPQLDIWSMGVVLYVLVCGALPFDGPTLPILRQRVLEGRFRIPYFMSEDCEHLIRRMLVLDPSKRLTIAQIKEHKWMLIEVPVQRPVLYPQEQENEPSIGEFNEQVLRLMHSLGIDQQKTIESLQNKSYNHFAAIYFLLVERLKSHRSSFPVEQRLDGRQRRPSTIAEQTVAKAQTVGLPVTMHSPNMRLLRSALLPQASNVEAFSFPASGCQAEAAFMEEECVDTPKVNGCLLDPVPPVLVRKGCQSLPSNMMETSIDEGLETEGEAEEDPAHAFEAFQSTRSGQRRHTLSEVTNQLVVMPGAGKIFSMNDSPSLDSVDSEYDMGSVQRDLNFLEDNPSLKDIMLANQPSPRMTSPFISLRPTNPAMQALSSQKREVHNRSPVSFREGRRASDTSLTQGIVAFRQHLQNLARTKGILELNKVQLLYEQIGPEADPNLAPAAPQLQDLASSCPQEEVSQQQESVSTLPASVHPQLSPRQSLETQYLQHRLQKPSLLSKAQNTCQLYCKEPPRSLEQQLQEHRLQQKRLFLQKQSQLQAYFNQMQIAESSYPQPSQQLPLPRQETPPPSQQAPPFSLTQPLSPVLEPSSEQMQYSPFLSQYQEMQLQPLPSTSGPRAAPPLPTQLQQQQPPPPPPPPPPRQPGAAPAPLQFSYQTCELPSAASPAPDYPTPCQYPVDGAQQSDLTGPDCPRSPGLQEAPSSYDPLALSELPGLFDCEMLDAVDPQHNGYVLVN

`CC(C)(O)[C@H](F)CN1Cc2cc(NC(=O)c3cnn4cccnc34)c(N3CCOCC3)cc2C1=O` gave an inhibition [1] of 12.5%, an inhibition [2] of 7.5% and an inhibition [3] of 7%. It also gave an inhibition [4] of 9%, an inhibition [5] of 13.5% and an inhibition [6] of 25.3%. It also gave an inhibition [7] of 2%, an inhibition [8] of 2.5% and an inhibition [9] of 3%. The inhibition [10] was 5.5%, the inhibition [11] was 2.1% and the inhibition [12] was 11.5%. For the same molecule, the inhibition [13] was 13%, the inhibition [14] was 20.8% and the inhibition [15] was -1%. It also gave an inhibition [16] of 13%, an inhibition [17] of -3% and an inhibition [18] of -1%. The inhibition [19] was 3.5%, the inhibition [20] was 64.3% and the pIC50 [21] was 6.55. It also gave an inhibition ([21]; Compound concentration 1.0 uM) of 83.5%, a pIC50 [22] of 6.31 and an inhibition ([22]; Compound concentration 1.0 uM) of 80.5%. For the same molecule, the inhibition [23] was 10.5%, the inhibition [24] was 41.3% and the inhibition [25] was 3.5%. It also gave a pIC50 (Misshapen-like kinase 1) of 6.06, an inhibition (Misshapen-like kinase 1; Compound concentration 1.0 uM) of 80.5% and an inhibition [26] of 2%. It also gave an inhibition [27] of 5%, an inhibition [28] of 40.5% and an inhibition [29] of 12.5%. For the same molecule, the inhibition [30] was -3.5%, the inhibition [31] was 0.5% and the inhibition [32] was 18.5%. It also gave an inhibition [33] of 2.5%, an inhibition [34] of 4% and an inhibition [35] of 12%. It also gave an inhibition [36] of 4%, an inhibition [37] of 15% and an inhibition [38] of 16%. The inhibition (Homo sapiens) was 2%, the inhibition [39] was 2% and the inhibition [40] was 0.5%. It also gave an inhibition [41] of 5%, an inhibition [42] of 41.5% and an inhibition [43] of -0%. For the same molecule, the inhibition [44] was 4%, the EC50 [45] was > 50000 nM (not active) and the EC50 [46] was > 50000 nM (not active). For the same molecule, the inhibition [47] was 1.26%, the inhibition [48] was -0.18% and the inhibition [49] was 7.46%. For the same molecule, the inhibition [50] was 3.24%, the inhibition [51] was -7.48% and the inhibition [52] was -5.14%. For the same molecule, the inhibition [53] was 19.5%.
